Test results from patent US20250262191A1, “NEW CRYSTAL FORM OF NITROGEN-CONTAINING TRICYCLIC COMPOUND AND USE THEREOF” (SUNSHINE LAKE PHARMA CO., LTD., priority 2021, published 2025).

Legend:
[1] = Hygroscopicity experiment by dynamic moisture adsorption (DVS); assay type: physicochemical; conditions: relative humidity of 80%, 25° C.
Protocol: The hygroscopicity of the present invention is measured using the DVS INT-Std dynamic moisture and gas adsorption analyzer of the Surface Measurement Systems Company in UK. The humidity test range was 0%-95%, the air flow was 200 mL/min, the temperature was 25° C., test point: take one test point per […] 5% humidity.
An appropriate amount of the test sample was taken and the hygroscopicity of the test sample was tested by dynamic moisture adsorption device. The description of the hygroscopic characteristics and the definition of the hygroscopic weight gain (Appendix 9103 of Chinese Pharmacopoeia 2020 Edition, Guidelines for Drug Hygroscopicity Tests, experimental conditions: 25° C.±1° C., 80%±2% relative humidity) are described in the table below: […]

[2] = Stability experiment (high-temperature, high-humidity and photostability tests); assay type: physicochemical
Protocol: (1) High-temperature test: A batch of the test sample was taken into a flat weighing bottle, divided into ≤5 mm thick thin layer. The sample was placed at 60° C. for 30 days. The sample was then sampled at day 5, day 13 and day 30, and the change of the sample's color was observed. The purity of the sample was detected by HPLC.
(2) High-humidity test: A batch of the test sample was taken into a flat weighing bottle, divided into ≤5 mm thick thin layer. The sample was placed at 25° C., RH 90%±5% for 30 days. The sample was then sampled at day 5, day 13 and day 30, and the change of the sample's color was observed. The purity of the sample was detected by HPLC.
(3) Photostability test: A batch of the test sample was taken into a flat weighing bottle, divided into ≤5 mm thick thin layer. The sample was placed in an opened light box (with UV) at the illuminance […], UV light ≥0.7 w/m^2 for 30 days. The sample was then sampled at day 5, day 13 and day 30, and the change of the sample's color was observed. The purity of the sample was detected by HPLC.

[3] = Pharmacokinetic experiment in Beagle dogs, oral capsules; assay type: in vivo; conditions: male Beagle dogs, 5 mg/kg
Protocol: The crystal form H of the compound having Formula (I) was filled into capsules, which were used for oral administration.
Three male Beagle dogs weighing 8-12 kg were orally administered with capsules containing the test sample at a dose of 5 mg/kg, and blood samples were taken at time points of 0.25 h, 0.5 h, 1.0 h, 2.0 h, 4.0 h, 6.0 h, 8.0 h and 24 h. Standard curve was plotted based on concentrations of the samples in a suitable range, the concentration of the test sample in the plasma sample was measured and quantified by AB SCIEX API4000 LC-MS/MS at MRM mode. Pharmacokinetic parameters were calculated according to drug concentration-time curve using a noncompartmental method by WinNonLin 6.3 software.

[4] = High-humidity 25° C., RH 90%±5%, day 5
[5] = High-humidity 25° C., RH 90%±5%, day 13
[6] = High-humidity 25° C., RH 90%±5%, day 30
[7] = High-temperature 60° C., day 13
[8] = High-temperature 60° C., day 30
[9] = Lighting (light box with UV), day 5
[10] = Lighting (light box with UV), day 13
[11] = Lighting (light box with UV), day 30

## O=C(O)c1ccc2c(c1)Oc1ccc(OCc3c(-c4c(Cl)cccc4Cl)noc3C3CC3)nc1C1(CC1)C2 [Crystal form H, 2-((5-cyclopropyl-3-(2,6-dichlorophenyl)isoxazol-4-yl)methoxy)-10H-spiro[benzo[6,7]oxepino[3,2-b]pyridine-11,1′-cyclopropane]-7-carboxylic acid]
[1]
  hygroscopic characteristics: lightly hygroscopic
[2]; [4]
  Appearance: White
  Purity (HPLC): 99.89%
[2]; [5]
  Appearance: White
  Purity (HPLC): 99.92%
[2]; [6]
  Appearance: White
  Purity (HPLC): 99.85%
[2]; High-temperature 60° C., day 5
  Appearance: White
  Purity (HPLC): 99.89%
[2]; [7]
  Appearance: White
  Purity (HPLC): 99.72%
[2]; [8]
  Appearance: White
  Purity (HPLC): 99.86%
[2]; [9]
  Appearance: White
  Purity (HPLC): 99.90%
[2]; [10]
  Appearance: White
  Purity (HPLC): 99.91%
[2]; [11]
  Appearance: White
  Purity (HPLC): 99.72%
[2]; day 0
  Appearance: White
  Purity (HPLC): 99.83%
[2]; high temperature conditions
  crystal structure stability: remains basically unchanged
[2]; high temperature, high humidity and/or lighting conditions
  crystal structure stability: remains basically unchanged
[2]; high-temperature, high-humidity and/or lighting
  changes in the appearance and chemical purity: no obvious changes
[3]; dog, plasma
  AUC(0-t): 1130 ng·h/mL
  Cmax: 514 ng/mL
  Tmax: 1.33 h
[3]
  exposure in Beagle dogs: relatively large exposure
